According to ChEMBL document CHEMBL3885881, “DrugMatrix”:

Species on record: Rattus norvegicus
Test: DrugMatrix - Regimen: Daily Repeat
Format: toxicity, organism-based, Sprague-Dawley
Design: regimen Daily Repeat, gender Male, age 6-8 weeks
Conditions: in vivo, po, 85 mg/kg, route oral GAVAGE, dose level Low, vehicle .5 % CMC; for ABSOLUTE BASOPHIL / ABSOLUTE EOSINOPHIL / ABSOLUTE LYMPHOCYTE / ABSOLUTE MONOCYTE / ABSOLUTE SEGMENTED NEUTROPHIL / BASOPHIL / EOSINOPHIL / ERYTHROCYTE COUNT / HEMATOCRIT / HEMOGLOBIN / LEUKOCYTE COUNT / LYMPHOCYTE / MEAN CORPUSCULAR HEMOGLOBIN / MEAN CORPUSCULAR HEMOGLOBIN CONCENTRATION / MEAN CORPUSCULAR VOLUME / MONOCYTE / NEUTROPHIL / NUCLEATED RED BLOOD CELLS / PLATELET COUNT: tissue Blood; for ALANINE AMINOTRANSFERASE / ALBUMIN / ALKALINE PHOSPHATASE / ASPARTATE AMINOTRANSFERASE / BLOOD UREA NITROGEN / CARBON DIOXIDE / CHLORIDE / CHOLESTEROL / CREATINE PHOSPHOKINASE / CREATININE / GLUCOSE / LACTATE DEHYDROGENASE / LIPASE / PHOSPHORUS / POTASSIUM / SODIUM / TOTAL BILIRUBIN / TOTAL PROTEIN / URIC ACID: tissue Plasma

CCCN(CCC)C(=O)C(CCC(=O)O)NC(=O)c1ccccc1 (stereo unspecified) [PROGLUMIDE]
ABSOLUTE BASOPHIL (72 h, time 3 day): 0 CELLS/uL | ABSOLUTE EOSINOPHIL (72 h, time 3 day): 331.33 CELLS/uL | ABSOLUTE LYMPHOCYTE (72 h, time 3 day): 13210.67 CELLS/uL | ABSOLUTE MONOCYTE (72 h, time 3 day): 258 CELLS/uL | ABSOLUTE SEGMENTED NEUTROPHIL (72 h, time 3 day): 933.33 CELLS/uL | BASOPHIL (72 h, time 3 day): 0% | EOSINOPHIL (72 h, time 3 day): 2.33% | ERYTHROCYTE COUNT (72 h, time 3 day): 5.4 x10E6/uL | HEMATOCRIT (72 h, time 3 day): 34.93% | HEMOGLOBIN (72 h, time 3 day): 13.17 G/DL | LEUKOCYTE COUNT (72 h, time 3 day): 14.73 x10E3/uL | LYMPHOCYTE (72 h, time 3 day): 89.67% | MEAN CORPUSCULAR HEMOGLOBIN (72 h, time 3 day): 24.43 pg | MEAN CORPUSCULAR HEMOGLOBIN CONCENTRATION (72 h, time 3 day): 37.7 G/DL | MEAN CORPUSCULAR VOLUME (72 h, time 3 day): 64.7 fL | MONOCYTE (72 h, time 3 day): 1.67% | NEUTROPHIL (72 h, time 3 day): 6.33% | NUCLEATED RED BLOOD CELLS (72 h, time 3 day): 0.33 /100WBC | PLATELET COUNT (72 h, time 3 day): 1332 x10E3/uL | ALANINE AMINOTRANSFERASE (72 h, time 3 day): 42.67 u/L | ALBUMIN (72 h, time 3 day): 4.33 G/DL | ALKALINE PHOSPHATASE (72 h, time 3 day): 435.67 u/L | ASPARTATE AMINOTRANSFERASE (72 h, time 3 day): 72.33 u/L | BLOOD UREA NITROGEN (72 h, time 3 day): 16 mg/dL | CARBON DIOXIDE (72 h, time 3 day): 25.33 mmol/L | CHLORIDE (72 h, time 3 day): 104.33 MEQ/L | CHOLESTEROL (72 h, time 3 day): 60.67 mg/dL | CREATINE PHOSPHOKINASE (72 h, time 3 day): 288 u/L | CREATININE (72 h, time 3 day): 0.18 mg/dL | GLUCOSE (72 h, time 3 day): 161.67 mg/dL | LACTATE DEHYDROGENASE (72 h, time 3 day): 90.33 u/L | LIPASE (72 h, time 3 day): 9 u/L | PHOSPHORUS (72 h, time 3 day): 13.33 mg/dL | POTASSIUM (72 h, time 3 day): 6.41 MEQ/L | SODIUM (72 h, time 3 day): 144.2 MEQ/L | TOTAL BILIRUBIN (72 h, time 3 day): 0.23 mg/dL | TOTAL PROTEIN (72 h, time 3 day): 5.93 G/DL | URIC ACID (72 h, time 3 day): 1.67 mg/dL | ABSOLUTE BASOPHIL (120 h, time 5 day): 0 CELLS/uL | ABSOLUTE EOSINOPHIL (120 h, time 5 day): 53.33 CELLS/uL | ABSOLUTE LYMPHOCYTE (120 h, time 5 day): 15727.33 CELLS/uL | ABSOLUTE MONOCYTE (120 h, time 5 day): 190.67 CELLS/uL | ABSOLUTE SEGMENTED NEUTROPHIL (120 h, time 5 day): 1162 CELLS/uL | BASOPHIL (120 h, time 5 day): 0% | EOSINOPHIL (120 h, time 5 day): 0.33% | ERYTHROCYTE COUNT (120 h, time 5 day): 5.46 x10E6/uL | HEMATOCRIT (120 h, time 5 day): 35.63% | HEMOGLOBIN (120 h, time 5 day): 13.3 G/DL | LEUKOCYTE COUNT (120 h, time 5 day): 17.13 x10E3/uL | LYMPHOCYTE (120 h, time 5 day): 92% | MEAN CORPUSCULAR HEMOGLOBIN (120 h, time 5 day): 24.37 pg | MEAN CORPUSCULAR HEMOGLOBIN CONCENTRATION (120 h, time 5 day): 37.4 G/DL | MEAN CORPUSCULAR VOLUME (120 h, time 5 day): 65.13 fL | MONOCYTE (120 h, time 5 day): 1% | NEUTROPHIL (120 h, time 5 day): 6.67% | NUCLEATED RED BLOOD CELLS (120 h, time 5 day): 0 /100WBC | PLATELET COUNT (120 h, time 5 day): 1361 x10E3/uL | ALANINE AMINOTRANSFERASE (120 h, time 5 day): 50.67 u/L | ALBUMIN (120 h, time 5 day): 4 G/DL | ALKALINE PHOSPHATASE (120 h, time 5 day): 346.33 u/L | ASPARTATE AMINOTRANSFERASE (120 h, time 5 day): 79 u/L | BLOOD UREA NITROGEN (120 h, time 5 day): 17 mg/dL | CARBON DIOXIDE (120 h, time 5 day): 24.67 mmol/L | CHLORIDE (120 h, time 5 day): 108 MEQ/L | CHOLESTEROL (120 h, time 5 day): 61.67 mg/dL | CREATINE PHOSPHOKINASE (120 h, time 5 day): 409.67 u/L | CREATININE (120 h, time 5 day): 0.19 mg/dL | GLUCOSE (120 h, time 5 day): 187 mg/dL | LACTATE DEHYDROGENASE (120 h, time 5 day): 92.33 u/L | LIPASE (120 h, time 5 day): 8 u/L | PHOSPHORUS (120 h, time 5 day): 13.57 mg/dL | POTASSIUM (120 h, time 5 day): 5.82 MEQ/L | SODIUM (120 h, time 5 day): 144.9 MEQ/L | TOTAL BILIRUBIN (120 h, time 5 day): 0.27 mg/dL | TOTAL PROTEIN (120 h, time 5 day): 6.03 G/DL | URIC ACID (120 h, time 5 day): 1.67 mg/dL
